One experiment relates to CF1038 [daf-16(mu86)I]. Nature of the experiment: Lifespan assay, daf-16 mutant. It counts as in vivo, Caenorhabditis elegans. The following applies: 50 μM ThT, 100 μM curcumin. As for the experimental part: Lifespan assays were performed as described previously. (McColl, G. et al. Pharmacogenetic analysis of lithium-induced delayed aging in Caenorhabditis elegans. J Biol Chem 283, 350-357 (2008). Briefly, the nematode growth media (NGM) plates were prepared under sterile conditions. 100 μL of concentrated stocks of each of the compounds used in this study were added onto a previously prepared NGM small plate (3 mL volume) immediately spread over the surface of the plate. The final concentrations quoted in the text assume an even distribution of compound throughout the 3 ml plate. The plates were then placed in a laminar flow hood at room temperature for 30 min and then 60 μL of a concentrated suspension of E. coli OP50 was spotted to form a circular lawn on the center of each plate. Thirty late L4 larvae growing at 20° C. were transferred to fresh NGM plates with FUdR (75 μM) in presence or absence of the specified compounds and incubated at 20° C. The first day of adulthood is Day 3 in survival curves. There was between-experiment variation in the magnitude of the lifespan extension observed with ThT which appeared to correlate with different suppliers and batches. ThT concentration should be optimized depending on batch and purity and stability of the compound. […]
Animals were scored as alive, dead or lost every other day. […]

In a further experiment the test system is HSF-1. Nature of the experiment: Western blot HSF-1. It counts as in vivo, Caenorhabditis elegans. The following applies: ThT treatment. As for the experimental part: Peptide corresponding to amino acids 110-145 ([…]; SEQ ID NO:1) of HSP-16.2 was used to commercially synthesize antiserum (Invitrogen). Briefly, KLH-peptide was emulsified by mixing with an equal volume of Freund's adjuvant and injected into three subcutaneous dorsal sites for a total of 0.1 mg of peptide for immunization. The animals (rabbits) were bled, the blood allowed to clot and the serum collected by centrifugation. Monoclonal HSP-70 and Polyclonal HSF-1 primary antibodies were from stressgen (N27F3-4 and SPA-901, respectively).
Worms were transferred to siliconized eppendorf tubes, washed once in S-basal and frozen in liquid N2. Standard SDS-PAGE was performed using (4-12%) NOVEX gels and IVIES running buffer. Following transfer PVDF (BioRad) membranes were incubated with antisera (1:10000) or primary antibodies (1:1000) diluted in blocking buffer and then with secondary, goat anti-rabbit IgG antibody/horseradish peroxidase conjugate (Pierce), diluted 1:25000. Detection was undertaken with chemiluminescent reagents (SuperSignal, Pierce) and standard autoradiography.

The values that follow come from patent US20110081428A1, “Use of thioflavin-like compounds to increase life span and/or health span” (priority 2009, published 2011).

For `Cc1ccc2c(c1)sc(-c1ccc(N(C)C)cc1)[n+]2C.[Cl-]` [ThT, 4-(3,6-dimethyl-1,3-benzothiazol-3-ium-2-yl)-N,N-dimethylaniline chloride], the “lifespan of daf-16(mu86) mutant” value with CF1038 [daf-16(mu86)I] is listed as “extended the lifespan”. Besides, the HSF-1 protein levels result in the experiment with HSF-1 is listed as “slight increase”.
